For orientation: solubility means the concentration that dissolves in the medium under given conditions.

Converted amounts (≈) assume the structure as drawn.

The nature of data set [1]: physchem. As to conditions: water.
For data set [2] the following is noted: at 20 °C; cited from earlier work.
Data set [3] can be described thus: physchem. The note with it: aqueous buffer, thermodynamic from solid.
Experimental: (§1) The calculated amount of Leucine was weighted into a 500 ml flask. After addition of 250 ml deionized water the solution is sterilized by autoclavation. Thereafter 250 ml of a 25% (w/v) ammonia solution is added and determined whether the Leucine was dissolved or not. After dissolution of the Leucine the final volume of the solution was determined.
Data set [4] in a line: Determination of solubility of Leucine in an ammonia solution. As to conditions: for soluble: 250 ml water + 250 ml 25% (w/v) ammonia solution.
Experimental: as §1

The compound `NC(=O)CC[C@H](N)C(=O)O` [glutamine] gave a solubility in “physchem [1]” (18 °C) of less than 50 mg/mL.
Compound `N[C@@H](Cc1c[nH]cn1)C(=O)O` [histidine] displayed a solubility in the data set “physchem [1]” (20 °C) of less than 50 mg/mL.
On to `CC[C@H](C)[C@H](N)C(=O)O` [isoleucine], for which the solubility in water in data set [2] is 40 mg/mL (≈ 305 mM). In “physchem [1]” (20 °C), the solubility was less than 50 mg/mL.
`CC(C)C[C@H](N)C(=O)O` [leucine]: the solubility in “physchem [1]” (20 °C) is less than 50 mg/mL; in “physchem [3]” it was 76 mg/mL (≈ 579 mM). In data set [4] (12.5% (w/v) ammonia versus water at 20 °C), the “solubility in alkaline solution relative to solubility in water” value is “more than three times”. The soluble result in data set [4] (Leucine concentration 17 g/l), in data set [4] (Leucine concentration 18 g/l), in data set [4] (Leucine concentration 19 g/l), in data set [4] (Leucine concentration 20 g/l), in data set [4] (Leucine concentration 21 g/l) and in data set [4] (Leucine concentration 25 g/l) was “yes” throughout. The soluble result in data set [4] (Leucine concentration 30 g/l), in data set [4] (Leucine concentration 40 g/l), in data set [4] (Leucine concentration 50 g/l), in data set [4] (Leucine concentration 60 g/l), in data set [4] (Leucine concentration 70 g/l) and in data set [4] (Leucine concentration 71 g/l) was “yes” throughout. Also, the soluble result in data set [4] (Leucine concentration 72 g/l) is “yes”; in data set [4] (Leucine concentration 73 g/l), “yes”; in data set [4] (Leucine concentration 74 g/l), “yes”; in data set [4] (Leucine concentration 75 g/l) it was “yes”; in data set [4] (Leucine concentration 76 g/l), “yes”; in data set [4] (Leucine concentration 77 g/l) it was “no”.
For `CSCC[C@H](N)C(=O)O` [methionine], the solubility in the data set “physchem [1]” (20 °C) was less than 50 mg/mL.
The compound `N[C@@H](Cc1ccccc1)C(=O)O` [phenylalanine] displayed a solubility in “physchem [1]” (20 °C) of less than 50 mg/mL.
As for `N[C@@H](Cc1c[nH]c2ccccc12)C(=O)O` [tryptophane], in data set [2], the solubility in water is 10 mg/mL (≈ 49 mM). The compound also showed a solubility in the data set “physchem [1]” (20 °C) of less than 50 mg/mL.
For `CC(C)[C@H](N)C(=O)O` [valine], the solubility in water in data set [2] was 88 mg/mL (≈ 751 mM).

(Values after US8951756B2, “Alkaline feed” (Hoffmann-La Roche Inc., priority 2010, dated 2015).)
